pIC50: −log10 of the molar value.
Molecular target: T1, MINPP1 (Homo sapiens, UniProt Q9UNW1)
T1 construct: recombinant, expressed in and purified from E. coli; borders and tags only in the supplement
T1 sequence (Q9UNW1 31-487): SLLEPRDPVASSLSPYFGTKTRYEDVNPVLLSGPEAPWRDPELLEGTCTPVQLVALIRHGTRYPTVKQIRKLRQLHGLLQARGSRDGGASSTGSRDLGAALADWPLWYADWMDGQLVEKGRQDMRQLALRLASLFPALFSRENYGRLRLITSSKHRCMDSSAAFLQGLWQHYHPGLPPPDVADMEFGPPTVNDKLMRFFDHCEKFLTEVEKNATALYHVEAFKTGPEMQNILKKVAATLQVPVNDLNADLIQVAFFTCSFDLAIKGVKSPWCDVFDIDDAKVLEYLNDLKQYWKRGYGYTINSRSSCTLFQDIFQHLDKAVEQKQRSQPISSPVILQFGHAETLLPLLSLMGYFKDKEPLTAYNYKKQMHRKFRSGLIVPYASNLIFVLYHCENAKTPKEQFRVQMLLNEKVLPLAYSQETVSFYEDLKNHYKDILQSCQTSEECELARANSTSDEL
Experiment: 2D NMR of dephosphorylation of [[…]6]InsP5[2OH]
Assay type: biochemical
Details: read-out: apparent IC50

pIC50: 5.70
Compound: O=P(O)(O)O[C@H]1[C@H](OP(=O)(O)O)[C@@H](OP(=O)(O)O)[C@H](OP(=O)(O)O)[C@@H](OP(=O)(O)O)[C@H]1OP(=O)(O)O [InsP6]

From publication PMC9801504, “Stable Isotopomers of myo-Inositol Uncover a Complex MINPP1-Dependent Inositol Phosphate Network” (ACS Central Science, 2022)
